Data on 13 compounds can be found in US11912693B2, “Compounds for modulating S1P1 activity and methods of using the same” (TREVENA, INC., priority 2017, dated 2024).

Assay [1] has as its target T1, human sphingosine-1-phosphate receptor 1 (S1P1) (Homo sapiens (Human), UniProt P21453). Put plainly: Inhibition of cAMP production (HTRF cAMP HiRange), S1P1 CHO-K1 cells. The format is cell-based. The conditions noted are these: for hS1P1 cAMP pEC50: inhibition of cAMP production, S1P1 CHO-K1 cells; for Emax: CHO-K1, efficacy (SPAN) normalized to fingolimod, read-out: hS1P1 cAMP SPAN. In short, it runs like this: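 CHO-K1 cells stably co-expressing human S1P1 (C-terminal Prolink tag) and EA-β-arrestin2 were grown in AssayComplete Media 6 at 37° C. and 5% CO2, plated, and incubated overnight. Agonist-driven inhibition of intracellular cAMP was read by TR-FRET with the HTRF cAMP HiRange kit on a PheraStar reader. Potency is pEC50, and efficacy (SPAN) is normalized to fingolimod.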
A general note: cAMP levels reflect the balance of adenylyl cyclase and phosphodiesterase activity.
Target sequence in this assay (P21453 whole entry, looked up): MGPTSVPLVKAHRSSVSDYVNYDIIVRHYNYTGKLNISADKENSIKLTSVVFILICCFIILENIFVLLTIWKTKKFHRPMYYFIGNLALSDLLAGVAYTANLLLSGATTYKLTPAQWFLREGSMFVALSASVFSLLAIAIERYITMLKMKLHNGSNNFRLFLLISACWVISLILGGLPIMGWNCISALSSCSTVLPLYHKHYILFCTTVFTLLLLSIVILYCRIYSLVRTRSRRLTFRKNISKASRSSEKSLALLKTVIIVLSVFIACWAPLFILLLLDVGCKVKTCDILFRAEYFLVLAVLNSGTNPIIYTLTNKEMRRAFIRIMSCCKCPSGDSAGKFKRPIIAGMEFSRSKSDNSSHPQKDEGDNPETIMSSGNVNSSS

Assay [2] has as its target T1, human sphingosine-1-phosphate receptor 1 (S1P1). Put plainly: β-Arrestin2 recruitment assay (PathHunter), S1P1 CHO-K1 cells. It is filed as cell-based. The conditions noted are these: for hS1P1 B-arrestin2 pEC50: β-arrestin2 recruitment, S1P1 CHO-K1 cells; for Emax: CHO-K1, efficacy (SPAN) normalized to fingolimod, read-out: hS1P1 B-arrestin2 SPAN. Summed up:
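Enzyme-fragment complementation read-out: agonist-driven β-arrestin2 binding to ProLink-tagged human S1P1 in stable CHO-K1 cells restores β-galactosidase, measured 1 h at room temperature after a 60 min 37° C. compound incubation. Potency as pEC50, efficacy relative to fingolimod (SPAN).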
Target sequence in this assay (P21453 whole entry, looked up): as above
Target sequence in this assay (P32121 whole entry partner, looked up): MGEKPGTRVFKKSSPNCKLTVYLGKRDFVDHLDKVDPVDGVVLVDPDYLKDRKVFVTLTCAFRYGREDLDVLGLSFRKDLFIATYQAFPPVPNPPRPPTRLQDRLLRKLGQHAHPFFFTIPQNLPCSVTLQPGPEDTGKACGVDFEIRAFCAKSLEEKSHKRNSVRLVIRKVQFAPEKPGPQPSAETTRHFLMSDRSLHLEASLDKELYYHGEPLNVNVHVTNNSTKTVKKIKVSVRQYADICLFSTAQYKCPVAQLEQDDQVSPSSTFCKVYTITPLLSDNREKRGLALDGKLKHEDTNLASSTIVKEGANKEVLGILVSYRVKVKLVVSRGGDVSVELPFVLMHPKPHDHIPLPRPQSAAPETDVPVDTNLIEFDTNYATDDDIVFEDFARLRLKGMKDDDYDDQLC

Assay [3] concerns the target human sphingosine-1-phosphate receptor 2 (S1P2) (Homo sapiens (Human), UniProt O95136). The experiment in a line: Inositol monophosphate production (IP-one TB kit), S1P2 CHO-K1 cells. The format is cell-based. The conditions noted are these: inositol monophosphate accumulation, hS1P2. Here is the method:
(§1) Stable clonal Chinese hamster ovary K1 (CHO-K1) cells co-expressing EA-β-arrestin2 and the human sphingosine-1-phosphate receptor 2 (NM_004230.3, S1P2), human sphingosine-1-phosphate receptor 3 (NM_005226, S1P3) and sphingosine-1-phosphate receptor 5 (NM_001166215.1, S1P5) with a C-terminal Prolink™ tag were purchased from DiscoverX corporation (S1P2: Cat #93-0256C2, S1P3: Cat #93-0217C2, S1P5: Cat #93-0583C2).
(§2) Cell lines were cultured in AssayComplete™ Media 6 (DiscoverX Corporation, Cat #: 920018GF2) at 37° C. and 5% CO2 in a humidified CO2 and temperature-controlled incubator. To begin assay plating, cells were washed with dulbecco's phosphate buffered saline (CellGro, Cat #: 21-031-CV) and lifted from the culturing flask by incubation (37° C., 5 min) with CellStripper (Cellgro, Cat #: 25-056-CI). […] Plated cells were incubated overnight at 37° C. and 5% CO2 in a humidified CO2 and temperature-controlled incubator.
S1P2 Agonist-promoted G-protein responses were determined by measuring changes in intracellular inositol monophosphate using the IP-one TB kit (CisBio, Cat #: 62IPAPEJ) based on time-resolved fluorescence resonance energy transfer (TR-FRET) technology. AssayComplete™ Cell Plating 2 Reagent was removed and replaced with 1× IP-one stimulation buffer (as per manufacturer's instructions) along with test or control compounds at the desired concentrations. Following a 60-minute incubation at 37° C. and 5% CO2 in a humidified CO2 and temperature-controlled incubator, the components of the IP-one TB kit were added as per the manufacturer's instructions. After an hour incubation at room temperature, plates were analyzed by a BMG PheraStar microplate reader.
(§3) The tables below include the efficacy of the compound as compared to a positive control, referred to as “SPAN”. These values are normalized to fingolimod, a known agonist of the sphingosine-1-phosphate 3 and 5 receptor or CYM5520, a known agonist of the sphingosine-1-phosphate 2 receptor. The tables also include potency values (pEC50) for modulating discrete receptor-mediated activities (inhibition of cAMP production or inositol monophosphate accumulation).

Assay [4] addresses human sphingosine-1-phosphate receptor 3 (S1P3) (Homo sapiens (Human), UniProt Q99500). The experiment in a line: Inhibition of cAMP production (HTRF), S1P3 CHO-K1 cells. The format is cell-based. Particulars: inhibition of cAMP production, hS1P3. As to the method:
as §1, §2
S1P3 and S1P5 Agonist-promoted G-protein responses were determined by measuring changes in intracellular cAMP using the HTRF® cAMP HiRange kit (CisBio, Cat #: 62AM6PEJ) based on time-resolved fluorescence resonance energy transfer (TR-FRET) technology. […] Following a 30-minute room temperature incubation the components of the cAMP HiRange kit were added as per the manufacturer's instructions. After an hour incubation at room temperature, plates were analyzed by a BMG PheraStar microplate reader.
as §3

Assay [5] deals with paclitaxel induced peripheral neuropathy. Put plainly: Reversal of allodynia induced by paclitaxel in mice (s.c. or p.o., von Frey frequency method). The format is in vivo, c57bl/6 mice. Particulars: Mus musculus, po, 1 h, 3 mg/kg p.o., tested 60 min after dosing, read-out: Screen @ 3 mg/kg po (% MPE). Here is the method: Compounds were tested for efficacy in mouse models of chemotherapy induced peripheral neuropathy. […] For these studies […]/6 mice are habituated to the test environment and baseline measurements of pain sensitivity are assessed. To determine mechanical responses, the threshold for responses to punctate mechanical stimuli (mechanical hyperalgesia) was tested according to the frequency method. In brief, the plantar surface of the animal hindpaw was stimulated with a single von Frey monofilament (0.4 g) for approximately 1-2 seconds. If there was a withdrawal response, it was recorded as a positive response. A response was defined as a lifting or shaking of the paw upon stimulation. This was repeated ten times for each mouse. The final measurement for each mouse is the % non-response to stimulation for the ten trials. The % non-response to stimulation is converted to a % MPE. For paclitaxel induced peripheral neuropathy, a series of injections of PAC (6 mg/kg, i.p.) on days 1, 3, 5 and 7 is used to induce peripheral neuropathy. After approximately 14 days from the initiation of PAC injections, animals are re-assessed for mechanical sensitivity. […] On test day animals are dosed with compounds either subcutaneously or orally and tested for mechanical response by the frequency method either 30 min (s.c.) or 60 min (p.o.) after drug administration. Data is presented as a % MPE. For oxaliplatin induced peripheral neuropathy, a series of injections of OXA (4 mg/kg, i.p.) on days 1-5 is used to induce peripheral neuropathy. After approximately 14 days from the initiation of PAC injections, animals are re-assessed for mechanical sensitivity. […] On test day animals are dosed with compounds subcutaneously and tested for mechanical response by the frequency method 30 min after drug administration. Data is presented as a % MPE. One or more of the compounds show reversal of chemotherapeutic induced peripheral neuropathy.

human sphingosine-1-phosphate receptor 3 (S1P3), sequence (Q99500 whole entry): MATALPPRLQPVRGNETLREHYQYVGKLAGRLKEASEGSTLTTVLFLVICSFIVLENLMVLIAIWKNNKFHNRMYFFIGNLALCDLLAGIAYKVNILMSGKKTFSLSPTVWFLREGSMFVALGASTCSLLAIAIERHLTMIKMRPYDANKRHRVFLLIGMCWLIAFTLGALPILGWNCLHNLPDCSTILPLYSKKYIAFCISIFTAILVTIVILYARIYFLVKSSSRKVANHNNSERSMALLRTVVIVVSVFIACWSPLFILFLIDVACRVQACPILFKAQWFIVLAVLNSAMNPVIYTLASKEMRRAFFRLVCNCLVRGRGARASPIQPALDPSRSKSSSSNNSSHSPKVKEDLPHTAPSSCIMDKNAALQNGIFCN
human sphingosine-1-phosphate receptor 2 (S1P2), sequence (O95136 whole entry): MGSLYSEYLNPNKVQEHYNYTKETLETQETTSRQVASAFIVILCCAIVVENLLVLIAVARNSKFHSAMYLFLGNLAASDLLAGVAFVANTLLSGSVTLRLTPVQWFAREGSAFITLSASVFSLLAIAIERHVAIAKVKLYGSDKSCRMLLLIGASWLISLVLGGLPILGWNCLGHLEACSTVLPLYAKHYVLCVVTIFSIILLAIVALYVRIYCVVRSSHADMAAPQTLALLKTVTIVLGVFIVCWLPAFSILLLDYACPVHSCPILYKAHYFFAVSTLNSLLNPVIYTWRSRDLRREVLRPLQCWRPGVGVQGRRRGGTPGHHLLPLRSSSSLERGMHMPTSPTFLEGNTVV

For the compound `CC(C)Nc1ccc(-c2nc(-c3ccc4oc(=O)[nH]c4c3)no2)cc1C#N` [Compound 422, 2-(isopropylamino)-5-(3-(2-oxo-2,3-dihydrobenzo[d]oxazol-5-yl)-1,2,4-oxadiazol-5-yl)benzonitrile], the “hS1P1 cAMP pEC50” value in assay [1] is more than 6.5. In addition, the “hS1P1 B-arrestin2 pEC50” value in assay [2] is given as more than 5. Further, in assay [3], the “hS1P2 IP-one pEC50” value is recorded as more than 5.0. The “hS1P3 cAMP pEC50” value in assay [4] is more than 5.0.

Regarding `CCC1(CC)CC(=O)c2cc(-c3nc(-c4ccc5[nH]c(=O)oc5c4)no3)ccc2O1` [Compound 445, 6-(5-(2,2-diethyl-4-oxochroman-6-yl)-1,2,4-oxadiazol-3-yl)benzo[d]oxazol-2(3H)-one], in assay [1], the “hS1P1 cAMP pEC50” value is more than 6.5. Further, the “hS1P1 B-arrestin2 pEC50” value in assay [2] was more than 5. In assay [3], the “hS1P2 IP-one pEC50” value is recorded as more than 5.0. The “hS1P3 cAMP pEC50” value in assay [4] was less than 5.0.

For the compound `CC(C)Nc1ccc(-c2nc(-c3ccc4c(c3)NC(=O)C4)no2)cc1C#N` [Compound 496, 2-(isopropylamino)-5-(3-(2-oxoindolin-6-yl)-1,2,4-oxadiazol-5-yl)benzonitrile], the “hS1P1 cAMP pEC50” value in assay [1] is reported as more than 6.5. In addition, the “hS1P1 B-arrestin2 pEC50” value in assay [2] is given as more than 5. In assay [3], the “hS1P2 IP-one pEC50” value is recorded as less than 5.0. Further, the “hS1P3 cAMP pEC50” value in assay [4] is less than 5.0.

With `CC(C)Nc1ccc(-c2nnc(-c3cccc4[nH]cnc34)o2)cc1C#N` [Compound 585, 5-[5-(1H-1,3-benzodiazol-4-yl)-1,3,4-oxadiazol-2-yl]-2-[(propan-2-yl)amino]benzonitrile], the “hS1P1 cAMP pEC50” value in assay [1] is recorded as more than 6.5. Besides, the “hS1P1 B-arrestin2 pEC50” value in assay [2] is on record as more than 5. Further, the inhibition in vivo at 3 mg/kg in assay [5] was less than 50%.

On to `N#Cc1cc(-c2nnc(-c3cccc4[nH]cnc34)o2)ccc1NCC(F)F` [Compound 586, 5-[5-(1H-1,3-benzodiazol-4-yl)-1,3,4-oxadiazol-2-yl]-2-[(2,2-difluoroethyl)amino]benzonitrile], for which the “hS1P1 cAMP pEC50” value in assay [1] is more than 6.5. Also, in assay [2], the “hS1P1 B-arrestin2 pEC50” value was more than 5. For the same compound, the inhibition in vivo at 3 mg/kg in assay [5] is less than 50%.

For `N#Cc1cc(-c2nnc(-c3ccc4[nH]cnc4c3)o2)ccc1NC1CC1` [Compound 598, 5-[5-(1H-1,3-benzodiazol-5-yl)-1,3,4-oxadiazol-2-yl]-2-(cyclopropylamino) benzonitrile], in assay [1], the Emax is more than 75% and the “hS1P1 cAMP pEC50” value was more than 6.5. For the same compound, in assay [2], the Emax was more than 75% and the “hS1P1 B-arrestin2 pEC50” value is more than 5. In addition, the inhibition in vivo at 3 mg/kg in assay [5] is less than 50%.

Take `N#Cc1cc(-c2nnc(-c3ccc4[nH]cnc4c3)o2)ccc1NC(CF)CF` [Compound 600, 5-[5-(1H-1,3-benzodiazol-5-yl)-1,3,4-oxadiazol-2-yl]-2-[(1,3-difluoropropan-2-yl)amino]benzonitrile]: in assay [1], the Emax was more than 75% and the “hS1P1 cAMP pEC50” value is more than 6.5. Besides, in assay [2], the Emax was more than 75% and the “hS1P1 B-arrestin2 pEC50” value was more than 5. Besides, the inhibition in vivo at 3 mg/kg in assay [5] was less than 50%.

Take `COc1cnccc1-c1nc(-c2ccc3c(c2)nnn3C(C)C)no1` [Compound 606, 3-(1-isopropyl-1H-benzo[d][1,2,3]triazol-5-yl)-5-(3-methoxypyridin-4-yl)-1,2,4-oxadiazole]: in assay [1], the Emax is more than 75% and the “hS1P1 cAMP pEC50” value is more than 6.5. Moreover, in assay [2], the Emax is more than 75% and the “hS1P1 B-arrestin2 pEC50” value is recorded as more than 5. For the same compound, the inhibition in vivo at 3 mg/kg in assay [5] was more than 50%.

In the case of `COc1ncccc1-c1nc(-c2ccc3c(c2)nnn3C(C)C)no1` [Compound 607, 3-(1-isopropyl-1H-benzo[d][1,2,3]triazol-5-yl)-5-(2-methoxypyridin-3-yl)-1,2,4-oxadiazole], in assay [1], the Emax is more than 75% and the “hS1P1 cAMP pEC50” value is more than 6.5. Moreover, in assay [2], the Emax is more than 75% and the “hS1P1 B-arrestin2 pEC50” value is listed as more than 5. Further, the inhibition in vivo at 3 mg/kg in assay [5] was more than 50%.

As to `CC(C)n1nnc2cc(-c3noc(-c4cccc5c4CCC5=O)n3)ccc21` [Compound 608, 4-{3-[1-(propan-2-yl)-1H-1,2,3-benzotriazol-5-yl]-1,2,4-oxadiazol-5-yl}-2,3-dihydro-1H-inden-1-one], in assay [1], the “hS1P1 cAMP pEC50” value was more than 6.5. For the same compound, in assay [2], the “hS1P1 B-arrestin2 pEC50” value is listed as more than 5. Also, in assay [5], the inhibition in vivo at 3 mg/kg is less than 50%.

Regarding `CC(C)n1nnc2cc(-c3noc(-c4ccccc4N(C)C)n3)ccc21` [Compound 615, N,N-dimethyl-2-{3-[1-(propan-2-yl)-1H-1,2,3-benzotriazol-5-yl]-1,2,4-oxadiazol-5-yl}aniline], the “hS1P1 cAMP pEC50” value in assay [1] is on record as more than 6.5. Also, the “hS1P1 B-arrestin2 pEC50” value in assay [2] is listed as more than 5. Besides, in assay [5], the inhibition in vivo at 3 mg/kg is more than 50%.

Turning to `CC(C)n1nnc2cc(-c3noc(-c4cccc5c4CCC5O)n3)ccc21` (centres unmarked) [Compound 636, 4-{3-[1-(propan-2-yl)-1H-1,2,3-benzotriazol-5-yl]-1,2,4-oxadiazol-5-yl}-2,3-dihydro-1H-inden-1-ol], the “hS1P1 cAMP pEC50” value in assay [1] is more than 6.5. Further, the “hS1P1 B-arrestin2 pEC50” value in assay [2] was more than 5. Moreover, the inhibition in vivo at 3 mg/kg in assay [5] was less than 50%.

Turning to `CC(C)Nc1ccc(-c2nnc(-c3ccc4oc(=O)[nH]c4c3)o2)cc1C#N` [Compound 637, 5-[5-(2-oxo-2,3-dihydro-1,3-benzoxazol-5-yl)-1,3,4-oxadiazol-2-yl]-2-[(propan-2-yl)amino]benzonitrile], the “hS1P1 cAMP pEC50” value in assay [1] is on record as more than 6.5. Also, the “hS1P1 B-arrestin2 pEC50” value in assay [2] is more than 5. The inhibition in vivo at 3 mg/kg in assay [5] is more than 50%.
